# Results reported in patent publication US20260274892A1, “MACROCYCLIC BROAD SPECTRUM ANTIBIOTICS” (RQx Pharmaceuticals, Inc., priority 2017, published 2026).
# Columns and labels:
# [1] = test system: Methicillin Resistant Staphylococcus aureus strain USA 200; experiment: Minimum inhibitory concentration (MIC), CLSI broth micro-dilution, S. aureus; format: cell-based; conditions: Staphylococcus aureus, MRSA / USA200; Table 6; MRSA USA 200; cation adjusted Mueller Hinton Broth + 0.002% Tween-80; 35° C., 22 hours
# In short: (§1)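 Colonies grown 20 h at 35° C on Trypticase Soy agar (MRSA) or Luria agar (E. coli) were suspended in cation-adjusted Mueller Hinton broth with 0.002% Tween-80. Suspensions were added at OD600 0.0005 to 10-point twofold compound dilutions, then incubated 22 h at 35° C.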
# [2] = test system: Escherichia coli ATCC 25922; experiment: Minimum inhibitory concentration (MIC), CLSI broth micro-dilution, E. coli; format: cell-based; conditions: Escherichia coli, ATCC25922, 22 h, Table 6, cation adjusted Mueller Hinton Broth + 0.002% Tween-80, 35° C.
# In short: as §1
Structure (SMILES),MIC [1] [µM],MIC [2] [µM]
"Cc1nc(-c2ccc(C(C)(C)C)cc2)c(O)cc1C(=O)N[C@@H](CCN)C(=O)N(C)[C@@H]1C(=O)N[C@@H](C)C(=O)N[C@H](C(=O)NCC#N)Cc2ccc(OCCN)c(c2)-c2cc1ccc2OCCN (racemic) [Compound 404, rac-(8S,11S,14S)-3,18-bis(2-aminoethoxy)-N-(cyanomethyl)-11-methyl-14-[methyl-[rac-(2S)-4-amino-2-[[6-(4-tert-butylphenyl)-5-hydroxy-2-methyl-pyridine-3-carbonyl]amino]butanoyl]amino]-10,13-dioxo-9,12-diazatricyclo[13.3.1.12,6]icosa-1(18),2(20),3,5,15(19),16-hexaene-8-carboxamide]",0.094,0.38
"Cc1nc(-c2ccc(C(C)(C)C)cc2)c(N)cc1C(=O)N[C@@H](CCN)C(=O)N(C)[C@@H]1C(=O)N[C@@H](C)C(=O)N[C@H](C(=O)NCC#N)Cc2ccc(OCCN)c(c2)-c2cc1ccc2OCCN (racemic) [Compound 405, rac-(8S,11S,14S)-3,18-bis(2-aminoethoxy)-N-(cyanomethyl)-11-methyl-14-[methyl-[rac-(2S)-4-amino-2-[[5-amino-6-(4-tert-butylphenyl)-2-methyl-pyridine-3-carbonyl]amino]butanoyl]amino]-10,13-dioxo-9,12-diazatricyclo[13.3.1.12,6]icosa-1(18),2(20),3,5,15(19),16-hexaene-8-carboxamide]",0.063,0.38
"Cc1nc(-c2ccc(C(C)(C)C)cc2)c([N+](=O)[O-])cc1C(=O)N[C@@H](CCN)C(=O)N(C)[C@@H]1C(=O)N[C@@H](C)C(=O)N[C@H](C(=O)NCC#N)Cc2ccc(OCCN)c(c2)-c2cc1ccc2OCCN (racemic) [Compound 406, rac-(8S,11S,14S)-3,18-bis(2-aminoethoxy)-N-(cyanomethyl)-11-methyl-14-[methyl-[rac-(2S)-4-amino-2-[[6-(4-tert-butylphenyl)-2-methyl-5-nitro-pyridine-3-carbonyl]amino]butanoyl]amino]-10,13-dioxo-9,12-diazatricyclo[13.3.1.12,6]icosa-1(18),2(20),3,5,15(19),16-hexaene-8-carboxamide]",0.023,0.25
"Cc1nc(-c2ccc(C(C)(C)C)cc2)c(Cl)cc1C(=O)N[C@@H](CCN)C(=O)N(C)[C@@H]1C(=O)N[C@@H](C)C(=O)N[C@H](C(=O)NCC#N)Cc2ccc(OCCN)c(c2)-c2cc1ccc2OCCN (racemic) [Compound 407, rac-(8S,11S,14S)-3,18-bis(2-aminoethoxy)-N-(cyanomethyl)-11-methyl-14-[methyl-[rac-(2S)-4-amino-2-[[6-(4-tert-butylphenyl)-5-chloro-2-methyl-pyridine-3-carbonyl]amino]butanoyl]amino]-10,13-dioxo-9,12-diazatricyclo[13.3.1.12,6]icosa-1(18),2(20),3,5,15(19),16-hexaene-8-carboxamide]",0.016,0.13
"Cc1nc(-c2ccc(C(C)(C)C)cc2)c(N(C)C)cc1C(=O)N[C@@H](CCN)C(=O)N(C)[C@@H]1C(=O)N[C@@H](C)C(=O)N[C@H](C(=O)NCC#N)Cc2ccc(OCCN)c(c2)-c2cc1ccc2OCCN (racemic) [Compound 408, rac-(8S,11S,14S)-3,18-bis(2-aminoethoxy)-N-(cyanomethyl)-11-methyl-14-[methyl-[rac-(2S)-4-amino-2-[[6-(4-tert-butylphenyl)-5-(dimethylamino)-2-methyl-pyridine-3-carbonyl]amino]butanoyl]amino]-10,13-dioxo-9,12-diazatricyclo[13.3.1.12,6]icosa-1(18),2(20),3,5,15(19),16-hexaene-8-carboxamide]",0.023,0.38
"CNc1cc(C(=O)N[C@@H](CCN)C(=O)N(C)[C@@H]2C(=O)N[C@@H](C)C(=O)N[C@H](C(=O)NCC#N)Cc3ccc(OCCN)c(c3)-c3cc2ccc3OCCN)c(C)nc1-c1ccc(C(C)(C)C)cc1 (racemic) [Compound 409, rac-(8S,11S,14S)-3,18-bis(2-aminoethoxy)-N-(cyanomethyl)-11-methyl-14-[methyl-[rac-(2S)-4-amino-2-[[6-(4-tert-butylphenyl)-2-methyl-5-(methylamino)pyridine-3-carbonyl]amino]butanoyl]amino]-10,13-dioxo-9,12-diazatricyclo[13.3.1.12,6]icosa-1(18),2(20),3,5,15(19),16-hexaene-8-carboxamide]",0.13,0.75
"C[C@@H]1NC(=O)[C@@H](N(C)C(=O)[C@H](CCN)NC(=O)c2cnc(-c3ccc(C(C)(C)C)cc3)cc2N)c2ccc(OCCN)c(c2)-c2cc(ccc2OCCN)C[C@@H](C(=O)NCC#N)NC1=O (racemic) [Compound 411, rac-(8S,11S,14S)-3,18-bis(2-aminoethoxy)-N-(cyanomethyl)-11-methyl-14-[methyl-[rac-(2S)-4-amino-2-[[4-amino-6-(4-tert-butylphenyl)pyridine-3-carbonyl]amino]butanoyl]amino]-10,13-dioxo-9,12-diazatricyclo[13.3.1.12,6]icosa-1(18),2(20),3,5,15(19),16-hexaene-8-carboxamide]",0.016,0.25
"C[C@@H]1NC(=O)[C@@H](N(C)C(=O)[C@H](CCN)NC(=O)c2ccc(-c3ccc(C(C)(C)C)cc3)nc2N)c2ccc(OCCN)c(c2)-c2cc(ccc2OCCN)C[C@@H](C(=O)NCC#N)NC1=O (racemic) [Compound 412, rac-(8S,11S,14S)-3,18-bis(2-aminoethoxy)-N-(cyanomethyl)-11-methyl-14-[methyl-[rac-(2S)-4-amino-2-[[2-amino-6-(4-tert-butylphenyl)pyridine-3-carbonyl]amino]butanoyl]amino]-10,13-dioxo-9,12-diazatricyclo[13.3.1.12,6]icosa-1(18),2(20),3,5,15(19),16-hexaene-8-carboxamide]",0.023,0.5
"Cc1nc(-c2ccc(C(C)(C)C)cc2)cc(N)c1C(=O)N[C@@H](CCN)C(=O)N(C)[C@@H]1C(=O)N[C@@H](C)C(=O)N[C@H](C(=O)NCC#N)Cc2ccc(OCCN)c(c2)-c2cc1ccc2OCCN (racemic) [Compound 413, rac-(8S,11S,14S)-3,18-bis(2-aminoethoxy)-N-(cyanomethyl)-11-methyl-14-[methyl-[rac-(2S)-4-amino-2-[[4-amino-6-(4-tert-butylphenyl)-2-methyl-pyridine-3-carbonyl]amino]butanoyl]amino]-10,13-dioxo-9,12-diazatricyclo[13.3.1.12,6]icosa-1(18),2(20),3,5,15(19),16-hexaene-8-carboxamide]",0.016,0.13
"Cc1cc(-c2ccc(C(C)(C)C)cc2)nc(N)c1C(=O)N[C@@H](CCN)C(=O)N(C)[C@@H]1C(=O)N[C@@H](C)C(=O)N[C@H](C(=O)NCC#N)Cc2ccc(OCCN)c(c2)-c2cc1ccc2OCCN (racemic) [Compound 414, rac-(8S,11S,14S)-3,18-bis(2-aminoethoxy)-N-(cyanomethyl)-11-methyl-14-[methyl-[rac-(2S)-4-amino-2-[[2-amino-6-(4-tert-butylphenyl)-4-methyl-pyridine-3-carbonyl]amino]butanoyl]amino]-10,13-dioxo-9,12-diazatricyclo[13.3.1.12,6]icosa-1(18),2(20),3,5,15(19),16-hexaene-8-carboxamide]",0.016,0.25
"C[C@@H]1NC(=O)[C@@H](N(C)C(=O)[C@H](CCN)NC(=O)c2cc(N)c(-c3ccc(C(C)(C)C)cc3)nc2N)c2ccc(OCCN)c(c2)-c2cc(ccc2OCCN)C[C@@H](C(=O)NCC#N)NC1=O (racemic) [Compound 416, rac-(8S,11S,14S)-3,18-bis(2-aminoethoxy)-N-(cyanomethyl)-11-methyl-14-[methyl-[rac-(2S)-4-amino-2-[[2,5-diamino-6-(4-tert-butylphenyl)pyridine-3-carbonyl]amino]butanoyl]amino]-10,13-dioxo-9,12-diazatricyclo[13.3.1.12,6]icosa-1(18),2(20),3,5,15(19),16-hexaene-8-carboxamide]",0.094,3
"CCc1nc(-c2ccc(CC(C)C)cc2)ncc1C(=O)N[C@@H](CCN)C(=O)N(C)[C@@H]1C(=O)N[C@@H](C)C(=O)N[C@H](C(=O)NCC#N)Cc2ccc(OCCN)c(c2)-c2cc1ccc2OCCN (racemic) [Compound 417, rac-(8S,11S,14S)-3,18-bis(2-aminoethoxy)-N-(cyanomethyl)-11-methyl-14-[methyl-[rac-(2S)-4-amino-2-[[4-ethyl-2-(4-isobutylphenyl)pyrimidine-5-carbonyl]amino]butanoyl]amino]-10,13-dioxo-9,12-diazatricyclo[13.3.1.12,6]icosa-1(18),2(20),3,5,15(19),16-hexaene-8-carboxamide]",0.0062,0.13
"C[C@@H]1NC(=O)[C@@H](N(C)C(=O)[C@H](CCN)NC(=O)c2cnc(-c3ccc(C(C)(C)C)cc3)nc2O)c2ccc(OCCN)c(c2)-c2cc(ccc2OCCN)C[C@@H](C(=O)NCC#N)NC1=O (racemic) [Compound 419, rac-(8S,11S,14S)-3,18-bis(2-aminoethoxy)-N-(cyanomethyl)-11-methyl-14-[methyl-[rac-(2S)-4-amino-2-[[2-(4-tert-butylphenyl)-4-hydroxy-pyrimidine-5-carbonyl]amino]butanoyl]amino]-10,13-dioxo-9,12-diazatricyclo[13.3.1.12,6]icosa-1(18),2(20),3,5,15(19),16-hexaene-8-carboxamide]",0.063,8
